For assay [1], the target named is T1, Sigma intracellular receptor 2 (Rattus norvegicus, UniProt Q5U3Y7).
T1 sequence (Q5U3Y7 whole entry): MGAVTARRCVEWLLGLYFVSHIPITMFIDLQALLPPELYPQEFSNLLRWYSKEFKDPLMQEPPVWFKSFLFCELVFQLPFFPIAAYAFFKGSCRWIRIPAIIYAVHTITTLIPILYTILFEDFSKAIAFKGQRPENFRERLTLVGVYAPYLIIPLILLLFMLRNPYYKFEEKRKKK
The experiment in a line: Displacement of [3H]-di-o-tolylguanidine from sigma2 receptor in rat liver membranes incubated for 120 mins in the presence of sigma1 receptor ligand (+)-pentazocine by scintillation counting method. Format: cell membranes, Membrane. In general terms: Displacement assays read how much labelled ligand stays bound in the presence of the test substance.

Assay [2] deals with Glutamate receptor ionotropic, NMDA 2B (Homo sapiens, UniProt Q05586+Q13224). Nature of the assay: Displacement of [3H]ifenprodil from human recombinant GluN2B expressed in mouse L(tk-) cell membranes co-expressing GluN1a incubated for 120 mins by scintillation counting method.
Assay [3] deals with Sigma non-opioid intracellular receptor 1 (Cavia porcellus, UniProt Q60492). The experiment in a line: Displacement of [3H]-(+)-pentazocine from sigma1 receptor in guinea pig brain membranes incubated for 120 mins by scintillation counting method. It is filed as cell membranes, Membrane.
Assay [4] can be described thus: Selectivity index, ratio of Ki for sigma1 receptor in guinea pig brain membranes to Ki for human GluN2B expressed in mouse L(tk-) cell membranes co-expressing GluN1a. Format: cell-based.
The nature of assay [5]: Selectivity index, ratio of Ki for sigma2 receptor in rat liver membranes to Ki for human GluN2B expressed in mouse L(tk-) cell membranes co-expressing GluN1a. Format: cell-based.
Assay [6] in a line: Cytoprotection against glutamate/glycine-induced cytotoxicity against mouse LTK cells expressing GluN1a/GluN2B assessed as inhibition of cell death incubated for 12 hrs by LDH assay. It is filed as functional, cell-based.

Sequence of Glutamate receptor ionotropic, NMDA 2B (Q13224 whole entry, one chain of several): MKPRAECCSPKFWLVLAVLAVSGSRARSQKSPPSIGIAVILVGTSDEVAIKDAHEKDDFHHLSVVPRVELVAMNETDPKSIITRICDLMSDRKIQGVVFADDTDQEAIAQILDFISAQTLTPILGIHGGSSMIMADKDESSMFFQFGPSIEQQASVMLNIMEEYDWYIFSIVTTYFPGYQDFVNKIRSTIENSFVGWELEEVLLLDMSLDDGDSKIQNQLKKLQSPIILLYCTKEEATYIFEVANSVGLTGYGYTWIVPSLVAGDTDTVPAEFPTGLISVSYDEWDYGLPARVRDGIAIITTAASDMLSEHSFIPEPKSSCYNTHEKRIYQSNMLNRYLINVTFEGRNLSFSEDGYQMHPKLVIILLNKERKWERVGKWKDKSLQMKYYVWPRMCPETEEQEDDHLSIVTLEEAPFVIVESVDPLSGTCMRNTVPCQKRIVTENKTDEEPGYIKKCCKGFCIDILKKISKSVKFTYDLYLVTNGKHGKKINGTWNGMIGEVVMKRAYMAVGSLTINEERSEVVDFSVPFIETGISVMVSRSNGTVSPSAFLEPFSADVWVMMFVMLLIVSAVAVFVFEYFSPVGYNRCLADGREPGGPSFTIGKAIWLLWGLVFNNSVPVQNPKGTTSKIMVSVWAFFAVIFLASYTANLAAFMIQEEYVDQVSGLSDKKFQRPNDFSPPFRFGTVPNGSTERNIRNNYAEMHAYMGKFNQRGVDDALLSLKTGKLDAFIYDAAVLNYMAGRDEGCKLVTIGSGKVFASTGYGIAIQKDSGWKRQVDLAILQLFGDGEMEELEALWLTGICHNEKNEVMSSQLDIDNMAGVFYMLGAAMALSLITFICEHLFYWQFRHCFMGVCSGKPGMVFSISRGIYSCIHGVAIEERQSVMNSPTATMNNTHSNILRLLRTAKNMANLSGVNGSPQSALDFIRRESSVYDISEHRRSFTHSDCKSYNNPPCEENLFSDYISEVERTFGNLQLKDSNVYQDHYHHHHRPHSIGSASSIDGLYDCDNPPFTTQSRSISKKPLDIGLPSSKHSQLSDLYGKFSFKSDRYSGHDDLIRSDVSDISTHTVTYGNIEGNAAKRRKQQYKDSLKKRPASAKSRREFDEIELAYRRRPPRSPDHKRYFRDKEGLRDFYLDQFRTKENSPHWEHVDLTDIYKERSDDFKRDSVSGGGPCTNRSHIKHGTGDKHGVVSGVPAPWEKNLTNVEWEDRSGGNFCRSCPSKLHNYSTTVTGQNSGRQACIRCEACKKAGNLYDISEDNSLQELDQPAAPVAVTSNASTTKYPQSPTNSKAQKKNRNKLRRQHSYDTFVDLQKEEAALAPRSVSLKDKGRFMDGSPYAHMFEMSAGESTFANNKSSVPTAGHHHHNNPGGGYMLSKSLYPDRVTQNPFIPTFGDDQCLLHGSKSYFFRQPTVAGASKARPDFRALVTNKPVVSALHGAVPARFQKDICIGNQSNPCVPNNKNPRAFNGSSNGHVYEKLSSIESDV
Sequence of Sigma non-opioid intracellular receptor 1 (Q60492 whole entry): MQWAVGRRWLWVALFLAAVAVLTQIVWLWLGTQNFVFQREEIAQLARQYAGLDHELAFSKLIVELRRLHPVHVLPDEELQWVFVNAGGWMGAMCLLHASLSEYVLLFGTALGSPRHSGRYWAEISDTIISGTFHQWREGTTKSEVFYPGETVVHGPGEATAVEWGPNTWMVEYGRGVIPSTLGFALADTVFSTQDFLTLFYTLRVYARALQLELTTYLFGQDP

On to `CCN(CCCCc1ccccc1)C1CCc2ccsc2CC1` (configuration not stated), for which the Ki (in general, a measure of affinity in units of concentration, obtained from inhibition or displacement) in assay [1] was 46 nM; in assay [2], 33 nM; in assay [3] it was 12 nM.
The corresponding values for `CCN(CCc1ccccc1)C1CCc2ccsc2CC1` (configuration not stated) are 141 nM, 196 nM and 59 nM.
Regarding `Clc1ccc2c(c1)CCC(NCCCc1ccccc1)CC2` (configuration not stated), the Ki in assay [2] came to 2.1 nM.
Take `OCc1cc2c(s1)CCC(NCCCCc1ccccc1)CC2` (configuration not stated): the Ki was 73 nM in assay [1], 764 nM in assay [2] and 84 nM in assay [3].
For `CN(CCCc1ccccc1)C1CCc2ccsc2CC1` (configuration not stated), the Ratio Ki in assay [4] and in assay [5] was 2 in each case. In addition, the results for the Ki in assay [1], in assay [2] and in assay [3] were 13 nM, 6 nM and 10 nM, respectively.
On to `CN(CCc1ccccc1)C1CCc2cc(CO)sc2CC1` (configuration not stated), for which the Ki in assay [1] amounted to 48 nM; in assay [2], 726 nM; in assay [3] it was 56 nM.
With `c1ccc(CCCNC2CCc3ccsc3CC2)cc1` (configuration not stated), the Ki in assay [1] worked out at 5.1 nM; in assay [2], 5.9 nM; in assay [3] it was 187 nM.
On to `CN(CCCc1ccccc1)C1CCc2cc(CO)sc2CC1` (configuration not stated), for which the Ki in assay [1] amounted to 21 nM; in assay [2], 141 nM; in assay [3] it was 6.4 nM.
Take `CN(CCCCc1ccccc1)C1CCc2ccsc2CC1` (configuration not stated): the Ratio Ki in assay [4] and in assay [5] was 1.5 to 2 in each case. Further, the Ki stood at 12 nM in assay [1], 9 nM in assay [2] and 17 nM in assay [3].
In the case of `CCN(Cc1ccccc1)C1CCc2ccsc2CC1` (configuration not stated), the results for the Ki in assay [1], in assay [2] and in assay [3] were 149 nM, 61 nM and 60 nM, respectively.
The corresponding values for `CN(Cc1ccccc1)C1CCc2ccsc2CC1` (configuration not stated) are 91 nM, 72 nM and 49 nM.
For `OCc1cc2c(s1)CCC(NCCCc1ccccc1)CC2` (configuration not stated) the same measures were 30 nM, 183 nM and 61 nM.
For `c1ccc(CCNC2CCc3ccsc3CC2)cc1` (configuration not stated) the same measures were 56 nM, 33 nM and 133 nM.
As for `c1ccc(CCCCNC2CCc3ccsc3CC2)cc1` (configuration not stated), the Ki was found to be 5.7 nM in assay [1], 11 nM in assay [2] and 62 nM in assay [3].
For `Brc1cc2c(s1)CCC(NCCCCc1ccccc1)CC2` (configuration not stated) the same measures were 13 nM, 23 nM and 14 nM.
The corresponding values for `CCN(CCCc1ccccc1)C1CCc2ccsc2CC1` (configuration not stated) are 33 nM, 51 nM and 17 nM.
For the compound `Brc1cc2c(s1)CCC(NCCCc1ccccc1)CC2` (configuration not stated), the Ratio Ki in assay [4] and in assay [5] was 3 in each case. Also, the Ki is 43 nM in assay [1], 13 nM in assay [2] and 41 nM in assay [3].
Consider `CN(CCc1ccccc1)C1CCc2ccsc2CC1` (configuration not stated), for which the Ki was 63 nM in assay [1], 130 nM in assay [2] and 42 nM in assay [3].
`Oc1ccc(-c2cc3c(s2)CCC(NCCCc2ccccc2)CC3)cc1` (configuration not stated): the Ki in assay [1] stood at 63 nM; in assay [2], 60 nM; in assay [3], 181 nM.
Regarding `COc1ccc2c(c1)CC[C@H](NCCCc1ccccc1)C[C@@H]2O` (relative stereo), the IC50 – broadly, the concentration that gives 50% inhibition – in assay [6] came out at 12 nM.
